Experimental data: patent US9060968B2, “Treatment of degenerative joint disease” (AMPIO PHARMACEUTICALS, INC., priority 2011, dated 2015)

Test system: oxidized collagen IV
Test: Binding to H2O2 treated collagen IV (decrease in <5 kDa filtrate by LCMS)
Parameters: species or system human
Conditions: for Binding to collagen, result in words: oxidized forms of collagen
Experimental: Collagen source: 1 mg/ml Collagen IV form human placenta in 0.25% acetic acid (Sigma™). The collagen was oxidixed with 500 μM H2O2 in 1×PBS for 1 hour at 37° C. The oxidized collagen IV (final=0.2 mg/ml) was then incubated with 2 μM DA-DKP or 2 μM NAT in PBS for 1 hour at 37° C. At the end of the incubation, the <5 kDa fraction was isolated by a VIVASPIN® 2 microcentrifugal filter having a molecular weight cutoff of 5,000. The <5 kDa fraction was analyzed for DA-DKP and/or NAT content using a liquid chromatograph-mass spectrometery (LCMS) method for DA-DKP analysis.

Binding to collagen, result in words	Average % decrease (2 μM, oxidized collagen IV 0.2 mg/ml, 1 hour at 37° C., alone) [%]	Structure (SMILES)
bind to oxidized forms of collagen	–	CC(=O)N[C@@H](Cc1c[nH]c2ccccc12)C(=O)O [NAT, N-acetyl-tryptophan]
bind to oxidized forms of collagen	26.0	C[C@@H]1NC(=O)[C@H](CC(=O)O)NC1=O [DA-DKP, aspartyl-alanyl diketopiperazine]
